The source of these data is patent US20220202827A1, “Enhancement of Melanocyte Migration Using ROCK Inhibitors” (The General Hospital Corporation, priority 2019, published 2022).

Common to all, as to assay type: cell-based, human
For one assay, the system named is primary melanocytes. The assay can be described thus: Yield of primary melanocytes from dissociated epidermis cultured in TIVA ± Y-27632. As for the experimental part: Foreskin tissues were trimmed to remove the fat layer and then incubated with Dispase solution (2.5 mg/ml in PBS, overnight at 4° C.). On the second day, the epidermis was peeled from the dermis with fine forceps and chopped into small pieces, incubated with 0.05% trypsin for 15-30 min, neutralized with 10% FBS in DMEM, filtered ([…], Millipore), centrifuged, and rinsed with PBS. In the conventional method of melanocyte isolation, the epidermal cells were plated into culture vessels with melanocyte culture medium TIVA (Ham's F12, Mediatech, Inc., Herndon, Va., USA; 10% fetal bovine serum; 1× penicillin/streptomycin/glutamine, Invitrogen, Carlsbad, Calif., USA; 1×10^−4 M 3-isobutyl-1-methyl xanthine (IBMX), Sigma, St Louis, Mo., USA; 50 ng/ml 12-O-tetradecanoyl phorbol-13-acetate (TPA), Sigma; 2 μM Na3VO4; 1×10^−3 M N^6,2′-O-dibutyryladenosine 3′,5′-cyclic monophosphate (dbcAMP), Sigma) (Halaban et al., 2000; Yokoyama et al., 2008). The culture medium was changed once every 2 days until confluency was reached. For the new method, the isolated melanocytes were seeded with TIVA medium plus 10 μM Y-27632 (Y0503, Sigma) for two days, then the culture medium was replaced with standard TIVA without Y-27632 every 2 days, as in the conventional method. […] For isolation of keratinocytes, the dissociated epidermal cells were seeded with keratinocyte culture medium (K-SFM, Gibco/Thermo Fisher Scientific, Waltham, Mass., USA) into culture dishes pretreated with coating matrix containing type-I collagen (Gibco, R-011-K) and the medium was changed every 2 days. In order to understand the role of Y-27632 in promoting melanocyte growth, different media were used in different experiments depending on the experimental needs; information about the medium and protocol used for each experiment is listed in the following table.
To test whether Y-27632 can enhance the yield of primary melanocytes, dissociated cells isolated from epidermis were plated with melanocyte culture medium (TWA) containing 10 μM Y-27632 and incubated for 48 h, and then the medium was replaced with TIVA without Y-27632. […] The differences were significant at 5 or more days after plating, and at 16 days, about 5 times more melanocytes were recovered from Y-27632-treated cultures compared with untreated cultures. We further tested whether longer treatment with Y-27632 had the same effect.

The test system of assay [1] is passage 3 melanocytes. Briefly: Melanocyte proliferation in co-culture with keratinocytes in TIVA medium (cell counting). As to conditions: 24 h and 48 h. As for the experimental part: (§1) FIGS. 1A-C. Keratinocytes that survive culture in TWA medium with Y-27632 can enhance melanocyte growth through a paracrine signaling pathway. A. Equal numbers of pure passage 3 melanocytes were plated with TWA medium in 4 groups with addition(s) as indicated: 1) Y-27632 (10 μM) alone (Y in graph), 2) passage 3 keratinocytes alone (K), 3) keratinocytes and Y-27632 (10 μM) (K+Y), and 4) no addition (negative control, con). Relative fold changes in melanocyte proliferation compared to the negative control were determined by counting the number of melanocytes at 24 h and 48 h after plating. B. Conditioned TWA media were obtained from the 4 groups of passage 3 melanocyte cultures in (A) at 48 h after plating. Then, equal numbers of passage 3 melanocytes were plated in 4 groups, each with one of the conditioned medium. Relative fold changes in melanocyte proliferation compared to the negative control were determined by counting the number of melanocytes at 24 h and 48 h after plating. C. […]
(§2) Therefore, we hypothesized that the surviving keratinocytes in TIVA medium with Y-27632 can promote proliferation of melanocytes by secreting growth factors into the medium. […] To identify potential growth factors, quantitative RT-PCR analysis was performed for expression of six factors that have been reported to be secreted by cultured human keratinocytes and could enhance melanocyte growth.

Assay [2] has as its system passage 3 melanocytes. Briefly: Melanocyte proliferation in conditioned TIVA media (cell counting). The protocol: as §1, §2
The next assay relates to SCF (KITLG). The assay can be described thus: qRT-PCR analysis of SCF mRNA expression in keratinocytes. As for the experimental part: as §1, with “B. Conditioned TWA media were obtained from the 4 groups of passage 3 melanocyte cultures in (A) at 48 h after plating. Then, equal numbers of passage 3 melanocytes were plated in 4 groups, each with one of the conditioned medium.” left out, “plating.” for “plating. C.”
FIGS. 2A-E. Y-27632 can increase SCF expression in keratinocytes, which can promote melanocyte growth. […] Relative fold changes in melanocyte proliferation compared to the control medium were determined by counting the numbers of melanocytes. *p<0.05, **p<0.01 compared with the control; #p<0.05 comparing the SCF-treated group with the IgG-treated group.
Total RNA was extracted from cells using a QIAGEN RNeasy Plus Mini Kit (QIAGEN, Hilden, Germany) according to manufacturer's instructions. […] Data were acquired and analyzed with 7500 Fast System SDS software (Life Tedmologies, Grand Island, N.Y., USA). […]

The test system of another assay is SCF. The assay can be described thus: Western blot analysis of SCF protein expression in keratinocytes. As to conditions: K-SFM with or without Y-27632 for 24, 48 or 72 h. The protocol: FIGS. 2A-E. Y-27632 can increase SCF expression in keratinocytes, which can promote melanocyte growth. A. RT-PCR analysis of SCF mRNA expression in passage 3 keratinocytes grown in K-SFM with (Y) or without (con) Y-27632 for the indicated times. **p<0.01 comparing Y-treated with the corresponding control group. B. Western blot analysis of SCF protein expression with or without Y-27632 for 24, 48 or 72 h. C. RT-PCR analysis of SCF mRNA expression in keratinocytes grown in K-SFM with increasing concentrations of Y-27632 for 48 h. **p<0.01, ***p<0.005 comparing Y-27632-treated with untreated cells (0). D. gRT-PCR analysis of SCF mRNA expression in keratinocytes grown in K-SFM, 72 h after transfection of ROCK1 and ROCK2 siRNAs individually and together. **p<0.01 when compared with the control cells transfected with scramble siRNA (siCtrl). […] Relative fold changes in melanocyte proliferation compared to the control medium were determined by counting the numbers of melanocytes. *p<0.05, **p<0.01 compared with the control; #p<0.05 comparing the SCF-treated group with the IgG-treated group.
To test whether Y-27632 can enhance expression of SCF in keratinocytes, we cultured keratinocytes in the keratinocyte culture condition (K-SFM) with or without Y-27632 and measured SCF expression.
In general terms: Immunoblotting shows a protein as a band on a membrane.

The subject of assay [3] is passage 3 melanocytes. The assay can be described thus: Melanocyte proliferation in conditioned K-SFM media from keratinocytes ± Y-27632, ± SCF antibody. The settings on record: K-SFM conditioned 48 h by keratinocytes with Y-27632; melanocytes cultured 48 h. As for the experimental part: FIGS. 2A-E. Y-27632 can increase SCF expression in keratinocytes, which can promote melanocyte growth. A. RT-PCR analysis of SCF mRNA expression in passage 3 keratinocytes grown in K-SFM with (Y) or without (con) Y-27632 for the indicated times. **p<0.01 comparing Y-treated with the corresponding control group. B. Western blot analysis of SCF protein expression with or without Y-27632 for 24, 48 or 72 h. C. RT-PCR analysis of SCF mRNA expression in keratinocytes grown in K-SFM with increasing concentrations of Y-27632 for 48 h. **p<0.01, ***p<0.005 comparing Y-27632-treated with untreated cells (0). D. gRT-PCR analysis of SCF mRNA expression in keratinocytes grown in K-SFM, 72 h after transfection of ROCK1 and ROCK2 siRNAs individually and together. **p<0.01 when compared with the control cells transfected with scramble siRNA (siCtrl). E. Passage 3 keratinocytes were cultured in K-SFM with or without 1′-27632 for 48 h, and then the conditioned media were collected. […] Relative fold changes in melanocyte proliferation compared to the control medium were determined by counting the numbers of melanocytes. *p<0.05, **p<0.01 compared with the control; #p<0.05 comparing the SCF-treated group with the IgG-treated group. […]

In the next assay the test system is melanocytes. The assay can be described thus: Transwell migration assay of melanocytes. The protocol: A. Representative images of migrated melanocytes (dark grey) in the transwell migration assay with different conditions as indicated. […] C. The transwell migration assay was performed under the indicated conditions. ROCKi: Rock inhibitor Y-27632 (10 μM), SIKi: SIK inhibitors with different concentrations as indicated.
To test the effect of Y-27632 on melanocyte cell migration, 1×10^5 cells were cultured in the upper chamber of a transwell migration apparatus. The lower chamber was supplemented either with 254 (melanocyte culture medium) without FBS (control) or 254 media plus seeding human keratinocytes (HKC) in the bottom or 254 medium with […] Y-27632 plus seeding keratinocytes in the bottom (Y-27632+HKC) or 254 medium in the presence of 1% FBS. The chambers were incubated for 24 hours at 37° C. After removal of non-migrated cells on top of the filter, cells that had migrated through the membrane were fixed in 4% paraformaldehyde washed and then stained with 0.1% crystal violet (FIG. 3A). The number of cells that had migrated through the membrane was counted in six randomly selected high-power microscopic fields and the average number of cells were shown in FIG. 3B. […]

As to `C[C@@H](N)[C@H]1CC[C@H](C(=O)Nc2ccncc2)CC1.Cl.Cl` [Y-27632, (+)-(R)-trans-4-(1-aminoethyl)-N-(4-pyridyl)cyclohexanecarboxamide dihydrochloride], the “melanocytes recovered compared with untreated cultures” value in the assay with primary melanocytes (10 μM Y-27632 for first 48 h, at 16 days) is “about 5 times”. In addition, the “duration of treatment generating the highest yield of melanocytes” value with primary melanocytes (continuous treatment with Y-27632, incubation until Day 12) amounted to 4 days. For the same molecule, in the assay with primary melanocytes (continuous treatment with Y-27632 for up to 12 days), the “yield of melanocytes relative to the untreated group” value is “increased the yield of melanocytes relative to the untreated group”. For the same molecule, the “melanocytes observed in treated versus untreated cultures” value in the assay with primary melanocytes (dissociated epidermal cells, TIVA with 10 μM Y-27632 for 48 h, then TIVA alone, differences significant at 5 or more days after plating) is given as “more melanocytes in cultures treated with Y-27632 than in cultures without Y-27632”. In addition, in the assay with passage 3 melanocytes [1] (Y-27632 (10 μM) alone, no keratinocytes), the growth of melanocytes entry is given as “neither Y-27632 alone nor keratinocytes medium alone could promote the growth of melanocytes”. The melanocyte proliferation result with passage 3 melanocytes [1] (keratinocytes and Y-27632 (10 μM) (K+Y)) was “could significantly increase melanocyte proliferation”; with passage 3 melanocytes [2] (conditioned medium from cultures of keratinocytes in TIVA+Y-27632), “significantly enhanced melanocyte proliferation”; in the assay with passage 3 melanocytes [2] (conditioned medium from cultures of melanocytes with TIVA and Y-27632 alone), “did not increase melanocyte proliferation”. Moreover, the “SCF mRNA level in keratinocytes” value in the assay with SCF (KITLG) (passage 3 keratinocytes in K-SFM with or without Y-27632) is “can increase both mRNA and protein levels of SCF”. Besides, the “expression of six melanocyte growth-enhancing factors (RT-PCR)” value in the assay with SCF (KITLG) (passage 3 keratinocytes in TIVA+Y-27632, 0-48 h) was “only SCF (KITLG) expression increased significantly”. Besides, in the assay with SCF, the “SCF protein level in keratinocytes” value was “can increase both mRNA and protein levels of SCF”. Further, the “melanocyte growth with conditioned medium” value in the assay with passage 3 melanocytes [3] was “enhancement of melanocyte growth”. For the same molecule, the melanocyte migration entry with melanocytes (ROCKi (10 uM Y-27632), SIKi at different concentrations, alone or combined (FIG. 3C)) was “could enhances melanocyte migration”. The “migration of melanocytes through the membrane” value with melanocytes (lower chamber: 254 medium with 10 μM Y-27632 plus keratinocytes (HKC), 24 hours) is given as “significantly induced the migration of melanocytes”.
